Test results from US20250332173A1, “COMPOUNDS AND METHODS FOR MODULATING NUCLEIC ACID SPLICING” (REMIX THERAPEUTICS INC., priority 2021, published 2025).
Where two headings read alike, the source gives them in different places.

How the values were obtained:
HTT mRNA = test: RT-qPCR splicing assay, HTT canonical junction (CJ) and alternative junction (AJ) mRNA; assay type: cell-based, human; conditions: Homo sapiens; for AC50: increase in HTT alternative junction (AJ) mRNA, read-out: HTT AJ AC50
Procedure, shortened: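 Following a 24-hour incubation of A673 or K562 cells with serially diluted compound (3-fold steps, highest final 10 uM), the lysates undergo cDNA synthesis plus qPCR. Canonical and alternative junctions are each quantified against PPIA, GAPDH or GUSB.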

[1] = system: K562 (human chronic myelogenous leukemia) cells; test: Cell Titer Glo 2.0 cell viability assay; assay type: cell-based; conditions: Homo sapiens, K562, 72 h, K562 cells, 72 hours, Cell Titer Glo 2.0; read-out: K562 GI50
Protocol: Compounds described herein were screened for toxicity in K562 (human chronic myelogenous leukemia) cells using a Cell Titer Glo 2.0 assay.
Cells were plated at 500 cells/well (K562 cells) in 45 μL of IMDM supplemented with 1000 FBS in a 384-well opaque plate. Wells containing only medium were used as a blank control. Test compounds (e.g., compounds ofFormula (I), (II), (III), (IV), (V), (VI), (VII), (VIII), and (IX)) were first serially diluted in DMSO then diluted 1:100 with IMDM+10% FBS. The final concentration of DMSO was 0.1% in each well. The cells were incubated for 72 hours at 37° C. and 500 CO2 before assaying with Cell Titer Glo 2.0 reagent.

[2] = decrease in HTT canonical junction (CJ) mRNA, RT-qPCR, read-out: HTT CJ IC50
[3] = canonical junction qPCR panel, Table 5, read-out: HTT (decrease in CJ mRNA levels, IC50)

IC50 (HTT mRNA; [2]) [nM] | IC50 (HTT mRNA; [3]) [nM] | GI50 [1] [nM] | Compound | AC50 (HTT mRNA; RT-qPCR) [nM]
> 10000 | > 10000 | 1000 to 10000 | Cc1c(O)c(-c2ncc3c(=O)n(C4CNC4)ccc3n2)cc2cn(C)nc12 [Compound 1305, 6-(azetidin-3-yl)-2-(6-hydroxy-2,7-dimethyl-indazol-5-yl)pyrido[4,3-d]pyrimidin-5-one] | > 10000
> 10000 | 1000 to 10000 | < 100 | Cc1c(O)c(-c2ncc3c(=O)n(C45CCC(N)(CC4)C5)ccc3n2)cc2cn(C)nc12 [Compound 1428] | 1000 to 10000
1000 to 10000 | 1000 to 10000 | 1000 to 10000 | Cc1c(O)c(-c2ncc3c(=O)n([C@H]4C[C@@H](N)C4)ccc3n2)cc2cn(C)nc12 [Compound 1431, 6-((1s,3s)-3-aminocyclobutyl)-2-(6-hydroxy-2,7-dimethyl-2H-indazol-5-yl)pyrido[4,3-d]pyrimidin-5(6H)-one] | 1000 to 10000
1000 to 10000 | 1000 to 10000 | 100 to 1000 | Cc1c(O)c(-c2ncc3c(=O)n([C@H]4C[C@H](N)C4)ccc3n2)cc2cn(C)nc12 [Compound 1432, 6-((1r,3r)-3-aminocyclobutyl)-2-(6-hydroxy-2,7-dimethyl-2H-indazol-5-yl)pyrido[4,3-d]pyrimidin-5(6H)-one] | 1000 to 10000
1000 to 10000 | 100 to 1000 | 100 to 1000 | Cc1c(O)c(-c2ncc3c(=O)n([C@@H]4CCN[C@H](C)C4)ccc3n2)cc2cn(C)nc12 [Compound 1434, 2-(6-hydroxy-2,7-dimethyl-indazol-5-yl)-6-(2-methyl-4-piperidyl)pyrido[4,3-d]pyrimidin-5-one] | 100 to 1000
1000 to 10000 | 1000 to 10000 | < 100 | Cc1c(O)c(-c2ncc3c(=O)n([C@H]4CCNC(C)(C)C4)ccc3n2)cc2cn(C)nc12 [Compound 1436] | 1000 to 10000
1000 to 10000 | 1000 to 10000 | 1000 to 10000 | Cc1cn2nc(-c3ccc4c(=O)n([C@H]5CCNC5)ccc4n3)cc(C)c2n1 [Compound 1437, 2-(2,8-dimethylimidazo[1,2-b]pyridazin-6-yl)-6-[(3S)-pyrrolidin-3-yl]-1,6-aphthyridin-5-one] | 1000 to 10000
1000 to 10000 | 1000 to 10000 | 1000 to 10000 | Cc1cn2nc(-c3ccc4c(=O)n([C@@H]5CCNC5)ccc4n3)cc(C)c2n1 [Compound 1438, 2-(2,8-dimethylimidazo[1,2-b]pyridazin-6-yl)-6-[(3R)-pyrrolidin-3-yl]-1,6-naphthyridin-5-one] | 1000 to 10000
100 to 1000 | 100 to 1000 | < 100 | Cc1c(O)c(-c2ncc3c(=O)n([C@H]4CCN[C@@H](C)C4)ccc3n2)cc2cn(C)nc12 [Compound 1441, 2-(6-hydroxy-2,7-dimethyl-indazol-5-yl)-6-(2-methyl-4-piperidyl)pyrido[4,3-d]pyrimidin-5-one] | 100 to 1000
1000 to 10000 | 100 to 1000 | 100 to 1000 | Cc1c(O)c(-c2ncc3c(=O)n(C4CCNC(C)(C)C4)ccc3n2)cc2cn(C)nc12 (stereo not drawn) [Compound 1442] | 100 to 1000
> 10000 | > 10000 | 1000 to 10000 | Cc1c(O)c(-c2ncc3c(=O)n([C@@H]4C[C@H]5C[C@@H]4CN5)ccc3n2)cc2cn(C)nc12 [Compound 1445, 6-[(1R,4R,5R)-2-azabicyclo[2.2.1]heptan-5-yl]-2(6-hydroxy-2,7-dimethyl-indazol-5-yl)pyrido[4,3-d]pyrimidin-5-one] | > 10000
100 to 1000 | 100 to 1000 | 100 to 1000 | Cc1c(O)c(-c2ccc3c(=O)n(C4CC(C)NC(C)C4)ccc3n2)cc2cn(C)nc12 (stereo not drawn) [Compound 1447, 6-(2,6-dimethyl-4-piperidyl)-2-(6-hydroxy-2,7-dimethyl-indazol-5-yl)-1,6-naphthyridin-5-one] | 100 to 1000
1000 to 10000 | 100 to 1000 | 100 to 1000 | Cc1cn2cc(-c3cc(O)c4c(=O)n(C5CCNCC5)ccc4n3)cc(F)c2n1 [Compound 1448] | 100 to 1000
1000 to 10000 | 1000 to 10000 | 100 to 1000 | Cc1c(O)c(-c2ccc3c(=O)n([C@H]4CCNC4)ccc3n2)cc2cn(C)nc12 [Compound 1449, 2-(6-hydroxy-2,7-dimethyl-indazol-5-yl)-6-[(3S)-pyrrolidin-3-yl]-1,6-naphthyridin-5-one] | 1000 to 10000
1000 to 10000 | 1000 to 10000 | 100 to 1000 | Cc1c(O)c(-c2ccc3c(=O)n([C@@H]4CCNC4)ccc3n2)cc2cn(C)nc12 [Compound 1450, 2-(6-hydroxy-2,7-dimethyl-indazol-5-yl)-6-[(3R)-pyrrolidin-3-yl]-1,6-naphthyridin-5-one] | 1000 to 10000
100 to 1000 | 100 to 1000 | 100 to 1000 | Cn1cc2cc(-c3ccc4c(=O)n([C@H]5CCNC5)ccc4n3)c(O)c(F)c2n1 [Compound 1451, 2-(7-fluoro-6-hydroxy-2-methyl-indazol-5-yl)-6-[(3S)-pyrrolidin-3-yl]-1,6-naphthyridin-5-one] | 100 to 1000
100 to 1000 | 100 to 1000 | 100 to 1000 | Cn1cc2cc(-c3ccc4c(=O)n([C@@H]5CCNC5)ccc4n3)c(O)c(F)c2n1 [Compound 1452, 2-(7-fluoro-6-hydroxy-2-methyl-indazol-5-yl)-6-[(3R)-pyrrolidin-3-yl]-1,6-naphthyridin-5-one] | 100 to 1000
> 10000 | 1000 to 10000 | 100 to 1000 | Cc1c(O)c(-c2ncc3c(=O)n([C@@H]4C[C@@H](C)N[C@@H](C)C4)ccc3n2)cc2cn(C)nc12 [Compound 1453, 6-[(2S,6R)-2,6-dimethyl-4-piperidyl]-2-(6-hydroxy-2,7-dimethyl-indazol-5-yl)pyrido[4,3-d]pyrimidin-5-one] | 1000 to 10000

The next lines start with the compound.

Compound | IC50 (HTT mRNA; [2]) [nM] | IC50 (HTT mRNA; [3]) [nM] | GI50 [1] [nM] | AC50 (HTT mRNA; RT-qPCR) [nM]
Cc1cn2cc(-c3ccc4c(=O)n(C5CCNCC5)ccc4n3)cc(C)c2n1 [Compound 1241, 2-(2,8-dimethylimidazo[1,2-a]pyridin-6-yl)-6-(piperidin-4-yl)-1,6-naphthyridin-5(6H)-one] | 100 to 1000 | 100 to 1000 | < 100 | 100 to 1000
Cn1cc2cc(-c3ccc4c(=O)n(C5CCNC6(CC6)C5)ccc4n3)c(O)cc2n1 (stereo not drawn) [Compound 1242] | < 100 | < 100 | < 100 | < 100
COc1c(-c2ccc3c(=O)n(C4CCNCC4)ccc3n2)cc2cn(C)nc2c1C [Compound 1243] | > 10000 | > 10000 | > 10000 | > 10000
Cn1cc2cc(-c3ccc4c(=O)n([C@@H]5CCNC6(CC6)C5)ccc4n3)c(O)cc2n1 [Compound 1246] | 100 to 1000 | 100 to 1000 | 100 to 1000 | 100 to 1000
Cc1c(O)c(-c2ccc3c(=O)n(C4CCNCC4)cc(C)c3n2)cc2cn(C)nc12 [Compound 1284] | 100 to 1000 | < 100 | < 100 | < 100
Cc1cn(C2CCNCC2)c(=O)c2ccc(-c3cc4cn(C)nc4c(F)c3O)nc12 [Compound 1285] | < 100 | < 100 | < 100 | < 100
Cn1cc2nc(-c3ccc4c(=O)n(C5CCNCC5)ccc4n3)c(O)cc2n1 [Compound 1296] | 100 to 1000 | < 100 | 100 to 1000 | < 100
Cc1cn2cc(-c3ccc4c(=O)n(C5CCNCC5)ccc4n3)cc(C#N)c2n1 [Compound 1297] | 100 to 1000 | 100 to 1000 | 100 to 1000 | 100 to 1000
Cc1cn2cc(-c3ccc4c(=O)n(C5CCNC5)ccc4n3)cc(F)c2n1 (stereo not drawn) [Compound 1299] | > 10000 | > 10000 | 1000 to 10000 | > 10000
Cc1c(O)c(-c2ncc3c(=O)n(C4CCC(N)CC4)ccc3n2)cc2cn(C)nc12 (stereo not drawn) [Compound 1300, 6-((1s,4s)-4-aminocyclohexyl)-2-(6-hydroxy-2,7-dimethyl-2H-indazol-5-yl)pyrido[4,3-d]pyrimidin-5(6H)-one] | 1000 to 10000 | 100 to 1000 | 100 to 1000 | 100 to 1000
Cc1cn2cc(-c3ncc4c(=O)n(C5CCNCC5)ccc4n3)cc(C#N)c2n1 [Compound 1301] | 100 to 1000 | 100 to 1000 | 100 to 1000 | 100 to 1000
Cc1cn2cc(-c3ccc4c(=O)n(C5CCNC5)ccc4n3)c(O)c(C)c2n1 (stereo not drawn) [Compound 1302] | > 10000 | > 10000 | > 10000 | > 10000
Cc1c(O)c(-c2ncc3c(=O)n(N4CCNCC4)ccc3n2)cc2cn(C)nc12 [Compound 1303] | 100 to 1000 | 100 to 1000 | 100 to 1000 | 100 to 1000
Cc1c(O)c(-c2ncc3c(=O)n(C4CCN(C)CC4)ccc3n2)cc2cn(C)nc12 [Compound 1304] | 1000 to 10000 | 100 to 1000 | 100 to 1000 | 100 to 1000
Cc1c(O)c(-c2ncc3c(=O)n([C@@H]4C[C@H]5CC[C@@H](C4)N5)ccc3n2)cc2cn(C)nc12 [Compound 1429, 6-[(1S,5R)-8-azabicyclo[3.2.1]octan-3-yl]-2-(6-hydroxy-2,7-dimethyl-indazol-5-yl)pyrido[4,3-d]pyrimidin-5-one] | 100 to 1000 | 100 to 1000 | 100 to 1000 | 100 to 1000
